One series concerns circulating LH levels. The experiment in a line: Castrated male rat model: circulating luteinizing hormone (LH). It counts as in vivo. The conditions noted are these: castrated male SD rats, single oral dose less than or equal to 30 mg/kg, p<0.05. The procedure: In Vivo Assay to Assess Compound Activity in Rat (Oral Dosing)
Castrated male rat model to assess the effect of compound of invention on circulating levels of luteinizing hormone (LH)
The effect of compounds of the invention to inhibit luteinizing hormone (LH) secretion is determined by the following biological studies.
In humans and rodents, castration is well-precedented to permit heightened, persistent GnRH signaling and consequent elevation of circulating LH. Thus, a castrated rat model is used to provide a broad index for measurement of LH inhibition as a marker of test compound inhibition of the GnRH signaling pathway.
Castrated adult male Sprague-Dawley (SD) rats (150-175 g,) were purchased from Janvier (St Berthevin, France). All animals were housed 2 per cage in a temperature-controlled room (22±2° C.) and 50±5% relative humidity with a 12 hour/12 hour light/dark cycles (lights off at 6h00 pm). The animals were allowed 3 weeks of postoperative recovery prior to study. Animals were handled on a daily basis. Standard diet and tap water were provided ad libitum. Animal cage litters were changed once a week. On the study day, animals were acclimated to the procedure room for a period of one hour prior to the initiation of the experiment.
Compounds of the invention were formulated in 0.5% methyl cellulose.
After basal sampling (TO) a single dose of compounds of the invention or vehicle was administrated orally to rats. Blood samples were then collected at several time points post dosing (45, 90, 150, 300 and 420 minutes). Blood samples were obtained via tail vein bleed, drawn into EDTA-containing tubes and centrifuged immediately. Plasma samples were collected and stored in a −80° C. freezer until assayed. Serum LH levels were determined using radioimmunoassay kit from RIAZEN—Rat LH, Zentech (Liege, Belgium). Baseline was defined as the initial basal blood sample.

Another series relates to plasma testosterone. Description: Plasma testosterone in gonad intact male rats. The series is classed as in vivo, rat. The conditions noted are these: gonad intact male SD rats, 3 mg/kg oral, vs vehicle, FIG. 1. The protocol:
Effect of compounds of the invention on plasma testosterone in gonad intact male rats
The study was designed to evaluate the effect of compounds of the invention on testosterone circulating levels following oral administration at 3 mg/kg on SD gonad intact male rats.
(§1) Briefly the experimental methods used for this study were as follows:
Two groups of non-fasted rats (male, Sprague-Dawley, 200 to 225 g; n=4 rats/group) with jugular vein cannulation, were dosed via a single oral administration of compounds of the invention at 3 mg/kg. The control group was dosed with the vehicle. Compounds of the invention were prepared in a dose formulation of pyrogen-free water with 0.5% methylcellulose. Blood samples were collected via the catheter implanted in the jugular vein at pre-determined intervals using EDTA-3K as anti-coagulant. Samples were chilled and rapidly processed by centrifugation to obtain corresponding plasma samples. Testosterone hormone levels were determined by RIA performed on plasma samples collected for all the groups at 5 minutes before administration (basal time), and at 45, 90, 150, 300, 480 minutes and 24 hours after dosing.

The next series concerns plasma estradiol. Description: Estradiol circulating level in female rats. It counts as in vivo, rat. The conditions noted are these: adult female rats, 10 mg/kg b.i.d. oral, 10 days, FIG. 3. The procedure:
Effect of Compounds of the Invention on Estradiol Circulating Level in Female Rats
The aim of this study was to evaluate the effect of compounds of the invention on plasma estradiol levels following oral administration at 10 mg/kg (b.i.d.) for a period of 10 days in female rats.
as §1
Two groups of adult, female rats (Sprague-Dawley, ˜320 g) were treated in-phase with their individual estrous cycles. Thus, treatment was started in the proestrus phase (coincident with peak estradiol levels, as shown on Day 1 in FIG. 3) and rats were dosed twice daily (˜9h30 and 17h30) by oral administration either with a compound of the invention at 10 mg/kg or with the vehicle for the control group. Compounds of the invention were prepared in a dose formulation of pyrogen-free water with 0.5% methylcellulose. Estradiol levels were determined for all groups by ELISA performed on plasma samples derived from blood collections taken at 30 minutes before the daily, 9h30 test article administration on all days presented in FIG. 3.

The next series relates to body temperature. The experiment in a line: Thermoregulation in OVX ewes. The conditions noted are these: ovariectomized ewes, 1 mg/kg intravenous bolus, fed at 12h00. It counts as in vivo, ewe. An excerpt: In Vivo Assay in OVX Ewes-Activity in Thermoregulation Experimental Methods: Evaluation of Thermoregulation in OVX Ewe […] After 4 months recovery, animals were acclimatised to housing in single pens for a period of 7 days with ad libitum access to water and […] lucerne hay. One day prior to experimentation, the animals received a jugular vein cannula ([…], Tuta Laboratories, Lane Cove, Australia). The cannula were kept patent with heparinised saline. On the day of the experiment, compound no 5 of the present invention was formulated in physiological saline with 9% 2-hydroxypropyl-β-cyclodextrin at a concentration of 2 mg/mL. Compound no 5 (1 mg/kg, N=5) or vehicle (N=5) was administered at 11h00 by intravenous bolus injection at a dose volume of 0.5 mL/kg through the jugular cannula and the injected material was flushed into the animal with 5 mL of heparinised saline. Animals were fed at 12h00. Rectal temperatures were monitored with a probe at hourly intervals throughout the experiment, starting at 7h40 and concluding at 15h40.

Series [1] concerns the target T1, human NK-3 receptor (Homo sapiens (Human), UniProt P29371). The experiment in a line: Aequorin functional assay with human NK-3 receptor (antagonist testing). The conditions noted are these: read-out: Functional assay: Aequorin assay with human NK-3 receptor hNK-3 - AEQ (antagonist IC50). The series is classed as cell-based. The procedure: Aequorin Assay with Human NK-3 Receptor
Changes in intracellular calcium levels are a recognized indicator of G protein-coupled receptor activity. The efficacy of compounds of the invention to inhibit NKA-mediated NK-3 receptor activation was assessed by an in vitro Aequorin functional assay. Chinese Hamster Ovary recombinant cells expressing the human NK-3 receptor and a construct that encodes the photoprotein apoaequorin were used for this assay. In the presence of the cofactor coelenterazine, apoaequorin emits a measurable luminescence that is proportional to the amount of intracellular (cytoplasmic) free calcium.
The antagonist activity of compounds of the invention is measured following pre-incubation (3 minutes) of the compound (at various concentrations) with the cells, followed by addition of the reference agonist (NKA) at a final concentration equivalent to the EC80 (3 nM) and recording of emitted light (FDSS 6000 Hamamatsu) over the subsequent 90-second period. The intensity of the emitted light is integrated using the reader software. Compound antagonist activity is measured based on the concentration-dependent inhibition of the luminescence response to the addition of Neurokinin A.

The target in series [2] is T1, human NK-3 receptor. Description: 3H-SB222200 binding competition assay with human NK-3 receptor. The conditions noted are these: read-out: hNK-3 (Ki). The protocol: The affinity of compounds of the invention for the human NK-3 receptor was determined by measuring the ability of compounds of the invention to competitively and reversibly displace a well-characterized NK-3 radioligand in a concentration-dependent manner.
^3H-SB222200 Binding Competition Assay with Human NK-3 Receptor
Membranes were prepared from Chinese hamster ovary recombinant cells stably expressing the human NK-3 receptor. The membranes were incubated with 5 nM ^3H-SB222200 (ARC) in a HEPES 25 mM/NaCl 0.1M/CaCl2 1 mM/MgCl2 5 mM/BSA 0.5%/Saponin 10 μg/ml buffer at pH 7.4 and various concentrations of compounds of the invention. The amount of ^3H-SB222200 bound to the receptor was determined after filtration by the quantification of membrane associated radioactivity using the TopCount-NXT reader (Packard).

The target in a further series is human NK-1 receptor (Homo sapiens (Human), UniProt P25103). The experiment in a line: Selectivity assay: [3H] substance P binding, human NK-1. The following applies: 2 nM [3H] substance P, CHO membranes; read-out: hNK-1 (Ki). The procedure: Selectivity of the compounds of the invention was determined over the other human NK receptors, namely NK-1 and NK-2 receptors.
Chain of human NK-1 receptor (P25103 whole entry): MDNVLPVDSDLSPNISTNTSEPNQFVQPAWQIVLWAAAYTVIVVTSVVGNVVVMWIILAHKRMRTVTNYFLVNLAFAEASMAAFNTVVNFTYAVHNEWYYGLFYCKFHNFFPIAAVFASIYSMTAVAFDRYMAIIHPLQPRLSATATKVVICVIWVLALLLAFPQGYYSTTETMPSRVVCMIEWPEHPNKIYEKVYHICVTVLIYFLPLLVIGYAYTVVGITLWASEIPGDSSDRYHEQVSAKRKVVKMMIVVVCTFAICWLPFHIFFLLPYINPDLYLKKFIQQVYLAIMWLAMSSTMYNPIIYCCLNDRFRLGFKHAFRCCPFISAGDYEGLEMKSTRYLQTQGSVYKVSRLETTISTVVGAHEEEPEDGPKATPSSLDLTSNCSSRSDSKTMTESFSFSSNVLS
The affinity of compounds of the invention for the NK-1 receptor was evaluated in CHO recombinant cells which express the human NK-1 receptor. Membrane suspensions were prepared from these cells. The following radioligand: [^3H] substance P (PerkinElmer Cat#NET111520) was used in this assay. Binding assays were performed in a 50 mM Tris/5 mM MnCl2/150 mM NaCl/0.1% BSA at pH 7.4. Binding assays consisted of 25 μl of membrane suspension (approximately 5 μg of protein/well in a 96 well plate), 50 μl of compound or reference ligand (Substance P) at increasing concentrations (diluted in assay buffer) and 2 nM [^3H] substance P. The plate was incubated 60 min at 25° C. in a water bath and then filtered over GF/C filters (Perkin Elmer, 6005174, presoaked in 0.5% PEI for 2 h at room temperature) with a Filtration unit (Perkin Elmer). The radioactivity retained on the filters was measured by using the TopCount-NXT reader (Packard).

The next series deals with human NK-2 receptor (Homo sapiens (Human), UniProt P21452). The experiment in a line: Selectivity assay: [125I]-Neurokinin A binding, human NK-2. The following applies: 0.1 nM [125I]-Neurokinin A, CHO membranes; read-out: hNK-2 (Ki). The protocol: The affinity of compounds of the invention for the NK-2 receptor was evaluated in CHO recombinant cells which express the human NK-2 receptor. Membrane suspensions were prepared from these cells. […] Binding assays were performed in a 25 mM HEPES/1 mM CaCl2/5 mM MgCl2/0.5% BSA/10 μg/ml saponin, at pH 7.4. […] The radioactivity retained on the filters was measured by using the TopCount-NXT reader (Packard).
Chain of human NK-2 receptor (P21452 whole entry): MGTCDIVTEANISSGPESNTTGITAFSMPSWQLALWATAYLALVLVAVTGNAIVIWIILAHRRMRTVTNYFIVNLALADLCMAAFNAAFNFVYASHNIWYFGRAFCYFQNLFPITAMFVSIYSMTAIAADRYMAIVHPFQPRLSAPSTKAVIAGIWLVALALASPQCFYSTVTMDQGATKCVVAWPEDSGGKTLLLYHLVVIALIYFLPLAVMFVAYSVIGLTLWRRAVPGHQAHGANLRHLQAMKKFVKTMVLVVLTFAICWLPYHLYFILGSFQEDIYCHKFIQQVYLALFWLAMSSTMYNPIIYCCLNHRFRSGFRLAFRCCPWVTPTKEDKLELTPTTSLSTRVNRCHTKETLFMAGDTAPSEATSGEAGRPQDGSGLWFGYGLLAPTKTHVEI

For another series, the target named is hERG channel (Homo sapiens (Human), UniProt Q12809). Description: hERG inhibition assay (manual patch-clamp, HEK 293 cells). The conditions noted are these: 5 minutes of exposure, read-out: CardioSafety (hERG IC50). The series is classed as cell-based. The procedure: The human ether-a-go-go related gene (hERG) encodes the inward rectifying voltage gated potassium channel in the heart (IKr) which is involved in cardiac repolarisation. […] IKr current inhibition accounts for the vast majority of known cases of drug-induced QT-prolongation.
Chain of hERG channel (Q12809 whole entry): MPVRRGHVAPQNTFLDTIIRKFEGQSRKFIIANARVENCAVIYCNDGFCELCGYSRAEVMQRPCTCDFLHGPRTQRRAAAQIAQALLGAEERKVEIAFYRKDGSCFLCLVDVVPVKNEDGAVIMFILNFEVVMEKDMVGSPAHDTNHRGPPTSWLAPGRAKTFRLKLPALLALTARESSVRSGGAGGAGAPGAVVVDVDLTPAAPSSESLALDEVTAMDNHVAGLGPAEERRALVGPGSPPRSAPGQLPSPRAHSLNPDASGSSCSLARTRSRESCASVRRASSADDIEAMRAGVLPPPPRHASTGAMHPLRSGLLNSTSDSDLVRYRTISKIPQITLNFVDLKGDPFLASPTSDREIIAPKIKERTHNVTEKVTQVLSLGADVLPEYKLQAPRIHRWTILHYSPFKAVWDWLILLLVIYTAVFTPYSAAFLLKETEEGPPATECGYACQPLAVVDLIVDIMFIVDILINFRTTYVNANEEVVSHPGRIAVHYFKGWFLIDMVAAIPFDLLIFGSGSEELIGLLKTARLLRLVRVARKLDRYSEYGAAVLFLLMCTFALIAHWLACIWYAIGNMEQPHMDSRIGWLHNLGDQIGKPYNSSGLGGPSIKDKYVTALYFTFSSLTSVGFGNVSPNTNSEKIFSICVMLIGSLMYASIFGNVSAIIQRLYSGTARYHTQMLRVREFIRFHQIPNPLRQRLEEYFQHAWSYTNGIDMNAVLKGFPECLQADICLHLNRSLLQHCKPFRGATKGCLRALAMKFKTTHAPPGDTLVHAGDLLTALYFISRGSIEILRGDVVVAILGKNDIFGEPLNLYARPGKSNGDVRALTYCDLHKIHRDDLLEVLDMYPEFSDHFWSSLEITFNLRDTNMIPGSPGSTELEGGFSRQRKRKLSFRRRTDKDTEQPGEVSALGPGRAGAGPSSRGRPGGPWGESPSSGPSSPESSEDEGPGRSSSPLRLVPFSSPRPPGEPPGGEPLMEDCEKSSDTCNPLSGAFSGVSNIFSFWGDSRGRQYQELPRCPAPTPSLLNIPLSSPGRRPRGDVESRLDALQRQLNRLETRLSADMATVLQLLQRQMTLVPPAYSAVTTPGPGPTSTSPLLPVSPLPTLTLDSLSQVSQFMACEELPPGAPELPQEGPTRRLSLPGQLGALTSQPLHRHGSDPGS
Whole-cell currents (acquisition by manual patch-clamp) elicited during a voltage pulse were recorded in baseline conditions and following application of tested compounds (5 minutes of exposure). The concentrations of tested compounds (0.3 μM; 3 μM; 10 μM; 30 μM) reflect a range believed to exceed the concentrations at expected efficacy doses in preclinical models.
The current density recorded were normalized against the baseline conditions and corrected for solvent effect and time-dependent current run-down using experimental design in test compound free conditions.
(Block of hERG is tested as a sign of cardiac risk.)

A further series has as its system plasma protein. Description: Determination of plasma protein binding (equilibrium dialysis). It counts as in vitro ADME. The conditions noted are these: 4 hours at 37° C. An excerpt: Determination of Plasma Protein Binding
The pharmacokinetic and pharmacodynamic properties of chemicals/drugs are largely a function of the reversible binding of chemicals to plasma or serum proteins. […] Consequently, the extent of the plasma protein binding (PPB) of a compound influences its action as well as its distribution and elimination.
The determination of plasma protein binding (PPB) of a compound is enabled by equilibrium dialysis, an accepted and standard method for reliable estimation of the non-bound drug fraction in plasma. RED (Rapid Equilibrium Dialysis) device insert is made of two side-by-side chambers separated by an O-ring-sealed vertical cylinder of dialysis membrane (MWCO˜8,000). […] After 4 hours incubation at 37° C. under shaking, an aliquot is removed from each chamber and analyzed by a LC-MS/MS procedure enables the determination of both free and bound drug.
The “free fraction” may be calculated as 100%-% rPPB (i.e. the complementary percentage of that disclosed in Table 4, corresponding to the drug concentration that is unbound and therefore available to engage biological target and elicit pharmacological activity).
On the technique in general: In equilibrium dialysis free small molecules cross a membrane that holds back macromolecules.

As usually defined, the IC50 is the concentration needed to halve the response being measured. Usually Ki stands for a dissociation constant, usually derived from enzyme kinetics or from competition with a known ligand.

T1 sequence (P29371 whole entry): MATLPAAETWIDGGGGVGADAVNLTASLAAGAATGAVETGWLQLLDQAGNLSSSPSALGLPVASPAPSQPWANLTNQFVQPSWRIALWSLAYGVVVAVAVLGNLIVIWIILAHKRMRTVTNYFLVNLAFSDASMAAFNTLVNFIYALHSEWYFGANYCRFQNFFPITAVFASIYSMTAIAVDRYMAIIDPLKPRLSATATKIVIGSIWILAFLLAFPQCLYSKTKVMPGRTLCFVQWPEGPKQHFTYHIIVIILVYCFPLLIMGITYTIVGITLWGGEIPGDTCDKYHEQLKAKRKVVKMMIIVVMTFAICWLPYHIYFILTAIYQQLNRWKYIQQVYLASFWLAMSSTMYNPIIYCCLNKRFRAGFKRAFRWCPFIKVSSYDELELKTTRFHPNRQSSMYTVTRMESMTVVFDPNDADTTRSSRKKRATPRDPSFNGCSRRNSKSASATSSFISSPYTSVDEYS

With `Cc1nsc(-c2nnc3n2CCN(C(=O)c2ccc(F)cc2)[C@@H]3C)n1` [Compound 5, (R)-(4-fluorophenyl)(8-methyl-3-(3-methyl-1,2,4-thiadiazol-5-yl)-5,6-dihydro-[1,2,4]triazolo[4,3-a]pyrazin-7(8H)-yl)methanone], the “circulating LH levels” value with circulating LH levels is reported as “significantly suppressed circulating LH levels”. The plasma testosterone level result in the series with plasma testosterone is recorded as “significantly suppressed plasma testosterone level”. The estradiol levels result in the series with plasma estradiol was “significantly decreased estradiol levels”. In addition, the “pyrogenic response to feeding” value in the series on body temperature is “not observed”.

Take `COc1cccc(C(=O)N2CCn3c(-c4nc(C)ns4)nnc3[C@H]2C)c1` [Compound 27, (R)-(3-methoxyphenyl)(8-methyl-3-(3-methyl-1,2,4-thiadiazol-5-yl)-5,6-dihydro-[1,2,4]triazolo[4,3-a]pyrazin-7(8H)-yl)methanone]: the results for the IC50 on human NK-3 receptor [1] and at hERG channel were 220 nM and no less than 70000 nM, respectively. Moreover, the Ki was 100 nM at human NK-3 receptor [2], greater than 30000 nM on human NK-1 receptor and greater than 30000 nM on human NK-2 receptor. In the series with plasma protein, the “Exposure (% rPPB), bound drug fraction to the plasma protein” value was found to be 24%.
